Reference: patent publication US20020037931A1, “Substituted nitrated catechols, their use in the treatment of some central and peripheral nervous system disorders and pharmaceutical compositions containing them” (priority 2000, published 2002)

Key:
[1] = tested on: COMT; experiment: COMT activity (methylation of adrenaline to metanephrine) in rat liver homogenates; format: biochemical; conditions: rat liver homogenate; test compound 3 μM; means±SEM, n=4-8
[2] = target: T1, COMT (Homo sapiens, UniProt P21964); experiment: COMT activity in intact SK-N-SH cell monolayers; format: cell-based; conditions: SK-N-SH cells; test compound 100 nM; means±SEM, n=4-8
T1 construct: COMT activity was evaluated in cell monolayers by the ability to methylate adrenaline; host or cells: SK-N-SH cells
T1 sequence (P21964 1-271): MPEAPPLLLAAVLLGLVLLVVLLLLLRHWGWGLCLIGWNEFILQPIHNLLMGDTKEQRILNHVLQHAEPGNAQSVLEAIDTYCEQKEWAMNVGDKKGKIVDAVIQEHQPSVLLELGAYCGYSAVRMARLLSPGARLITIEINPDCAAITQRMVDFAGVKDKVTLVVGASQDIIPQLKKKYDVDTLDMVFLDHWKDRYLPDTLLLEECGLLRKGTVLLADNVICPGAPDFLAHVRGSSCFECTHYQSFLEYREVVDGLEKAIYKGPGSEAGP

[3] = tested on: COMT; experiment: COMT activity (methylation of adrenaline to metanephrine) in rat brain homogenates; format: biochemical; conditions: rat brain homogenate; test compound 100 nM; means±SEM, n=4-8

| Structure (SMILES) | COMT activity, Liver (% of control) [1] | COMT activity, SK-N-SH (% of control) [2] | COMT activity, Brain (% of control) [3] |
| --- | --- | --- | --- |
| CCOC(=O)Oc1ccc(C(=O)Cc2ccccc2)c([N+](=O)[O-])c1OC(=O)OCC [Compound 48, Carbonic acid, 2-ethoxycarbonyloxy-3-nitro-4-phenylacetyl-phenyl ester ethyl ester] | 0.5 ± 0.1 % of control | 7 ± 3 % of control | 0 ± 0 % of control |
| O=C(CCN1CCCC1)c1ccc(O)c(O)c1[N+](=O)[O-] [Compound 28, 1-(3,4-Dihydroxy-2-nitro-phenyl)-3-pyrrolidin-1-yl-propan-1-one] | 2.2 ± 0.2 % of control | 7 ± 0 % of control | 14 ± 1 % of control |
| CC1CCCN(CCC(=O)c2ccc(O)c(O)c2[N+](=O)[O-])C1 (stereo not shown) [Compound 32, 1-(3,4-Dihydroxy-2-nitro-phenyl)-3-(3-methyl-piperidin-1-yl)-propan-1-one] | 2.3 ± 0.2 % of control | 11 ± 2 % of control | 10 ± 0 % of control |
| O=C(C=Cc1ccccc1)c1ccc(O)c(O)c1[N+](=O)[O-] [Compound 41, 1-(3,4-dihydroxy-2-nitro-phenyl)-3-phenyl-propenone] | 1.1 ± 0.2 % of control | 5 ± 0 % of control | 9 ± 1 % of control |
| CCCCC(=O)c1ccc(O)c(O)c1[N+](=O)[O-] [Compound 17, 1-(3,4-dihydroxy-2-nitro-phenyl)-pentan-1-one] | 0.4 ± 0.0 % of control | 24 ± 4 % of control | 8 ± 1 % of control |
| CC(=O)OC(=Cc1ccccc1)c1ccc(OC(C)=O)c(OC(C)=O)c1[N+](=O)[O-] [Compound 46, Acetic Acid, 2-Acetoxy4-(I-acetoxy-2-phenyl-vinyl)-3-nitro-phenyl Ester] |  | 1 ± 1 % of control |  |
| O=C(CCN1CCN(c2cccc(C(F)(F)F)c2)CC1)c1ccc(O)c(O)c1[N+](=O)[O-] [Compound 38, 1-(3,4-Dihydroxy-2-nitro-phenyl)-3-[4-(3-trifluoromethyl-phenyl)-piperazin-1-yl]-propan-1-one] | 11.2 ± 1.5 % of control | 6 ± 1 % of control | 7 ± 0 % of control |
| COc1cc(C=C2Cc3cc(O)c(O)c([N+](=O)[O-])c3C2=O)cc([N+](=O)[O-])c1O [Compound 10, 5,6-Dihydroxy-2-(4-hydroxy-3-methoxy-5-nitro-benzylidene)-7-nitro-indan-1-one] | 0.3 ± 0.1 % of control | 24 ± 2 % of control | 14 ± 1 % of control |
| CC(=O)Oc1ccc(C(=O)C=Cc2ccccc2)c([N+](=O)[O-])c1OC(C)=O [Compound 40, Acetic acid, 6-acetoxy-2-nitro-3-(3-phenyl-acryloyl)-phenyl ester] | 1.6 ± 0.4 % of control | 8 ± 1 % of control | 10 ± 0 % of control |
| O=C(CCc1ccccc1)c1ccc(O)c(O)c1[N+](=O)[O-] [Compound 14, 1-(3,4-Dihydroxy-2-nitro-phenyl)-3-phenyl-propan-1-one] | 0.3 ± 0.0 % of control | 5 ± 2 % of control | 5 ± 1 % of control |
| COc1ccc(C=C2Cc3cc(O)c(O)c([N+](=O)[O-])c3C2=O)cc1OC [Compound 7, 2-(3,4-Dimethoxy-benzylidene)-5,6-dihydroxy-7-nitro-indan-1-one] | 0.6 ± 0.3 % of control | 23 ± 1 % of control | 14 ± 1 % of control |
| CCOC(=O)Oc1ccc(C(=O)CCCc2ccccc2)c([N+](=O)[O-])c1OC(=O)OCC [Compound 51, Carbonic acid, 2-ethoxycarbonyloxy-3-nitro-4-(4-phenyl-butyryl)-phenyl ester ethyl ester] | 0.6 ± 0.3 % of control | 1 ± 0 % of control | 0 ± 0 % of control |
| O=C(CCN1CCOCC1)c1ccc(O)c(O)c1[N+](=O)[O-] [Compound 26, 1-(3,4-dihydroxy-2-nitro-phenyl)-3-morpholin4-yl-propan-1-one] | 0.9 ± 0.1 % of control | 12 ± 1 % of control | 9 ± 0 % of control |
| COc1cc(C=C2CCc3cc(O)c(O)c([N+](=O)[O-])c3C2=O)cc([N+](=O)[O-])c1O [Compound 11, 6,7-Dihydroxy-2-(4-hydroxy-3-methoxy-5-nitro-benzylidene)-8-nitro-3,4-dihydro-2H-naphthalen-1-one] | 1.1 ± 0.3 % of control | 47 ± 2 % of control | 32 ± 2 % of control |
| CCN(CC)C(=O)C1CCCN(CCC(=O)c2ccc(O)c(O)c2[N+](=O)[O-])C1 (stereo not shown) [Compound 31, 1-[3-(3,4-Dihydroxy-2-nitro-phenyl)-3-oxo-propyl]-piperidine-3-carboxylic acid diethylamide] | 1.7 ± 0.6 % of control | 13 ± 2 % of control | 8 ± 0 % of control |
| O=C1C(=Cc2cc(O)c(O)c([N+](=O)[O-])c2)Cc2cc(O)c(O)c([N+](=O)[O-])c21 [Compound 16, 2-(3,4-Dihydroxy-5-nitro-benzylidene)-5,6-dihydroxy-7-nitro-indan-1-one] | 2.0 ± 0.2 % of control | 92 ± 1 % of control | 20 ± 1 % of control |
| CC1CC(C)CN(CCC(=O)c2ccc(O)c(O)c2[N+](=O)[O-])C1 (stereo not shown) [Compound 35, 1-(3,4-Dihydroxy-2-nitro-phenyl)-3-(3,5-dimethyl-piperidin-1-yl)-propan-1-one] | 23. ± 0.3 % of control | 13 ± 1 % of control | 9 ± 0 % of control |
| O=C(CN1CCOCC1)c1ccc(O)c(O)c1[N+](=O)[O-] [Compound 42, 1-(3,4-Dihydroxy-2-nitro-phenyl)-2-morpholin-4-yl-ethanone] | 0.8 ± 0.2 % of control | 27 ± 1 % of control | 13 ± 0 % of control |
| O=C1c2ccccc2C(=O)c2c1cc(O)c(O)c2[N+](=O)[O-] [Compound 18, 2,3-Dihydroxy-1-nitro-anthraquinone] | 2.0 ± 0.0 % of control | 70 ± 5 % of control | 17 ± 1 % of control |
| O=C1C(=Cc2ccc(O)c(O)c2)Cc2cc(O)c(O)c([N+](=O)[O-])c21 [Compound 12, 2-(3,4-dihydroxy-benzylidene)-5,6-dihydroxy-7-nitro-indan-1-one] | 0.6 ± 0.0 % of control | 34 ± 1 % of control | 18 ± 1 % of control |
| O=C1c2c(cc(O)c(O)c2[N+](=O)[O-])CC1CN1CCN(c2ccccc2)CC1 (stereo not shown) [Compound 44, 5,6-Dihydroxy-7-nitro-2-(4-phenyl-piperazin-1-ylmethyl)-indan-1-one] | 0.6 ± 0.2 % of control | 9 ± 2 % of control | 10 ± 0 % of control |
| O=[N+]([O-])c1c(O)c(O)cc2c1C(=NO)CC2 [Compound 6, 5,6-Dihydroxy-7-nitro-indan-1-one Oxime] | 1.77 ± 0.1 % of control | 39 ± 3 % of control | 33 ± 1 % of control |
| CC(=O)Oc1ccc(C(=O)CCCc2ccccc2)c([N+](=O)[O-])c1OC(C)=O [Compound 49, Acetic acid, 6-acetoxy-2-nitro-3-(4-phenyl-butyryl)-phenyl ester] | 1.4 ± 0.8 % of control | 1 ± 0 % of control | 0 ± 0 % of control |
| CC1CCN(CCC(=O)c2ccc(O)c(O)c2[N+](=O)[O-])CC1 [Compound 33, 1-(3,4-Dihydroxy-2-nitro-phenyl)-3-(4-methyl-piperidin-1-yl)-propan-1-one] | 2.2 ± 0.3 % of control | 14 ± 0 % of control | 6 ± 0 % of control |
| O=C1c2c(cc(O)c(O)c2[N+](=O)[O-])CC1CN1CCCCC1 (stereo not shown) [Compound 30, 5,6-Dihydroxy-7-nitro-2-piperidin-1-ylmethyl-indan-1-one] | 1.4 ± 0.1 % of control | 17 ± 1 % of control | 8 ± 0 % of control |
| O=C(CCN1CCCC2CCCCC21)c1ccc(O)c(O)c1[N+](=O)[O-] (stereo not shown) [Compound 34, 1-(3,4-Dihydroxy-2-nitro-phenyl)-3-(octahydro-quinolin-1-yl)-propan-1-one] | 1.6 ± 0.2 % of control | 11 ± 2 % of control | 5 ± 0 % of control |
